Data reported in PMC11597725, “New Asymmetric Gemini Triazole Surfactants with a Polar Triethylene Glycol Fragment: Synthesis and Physico-Chemical Properties” (Molecules, 2024).

Target: T1, bovine serum albumin (BSA) (Bos taurus, UniProt P02769)
T1 construct: gene ALB; native serum protein, BSA powder dissolved in buffer; mature form expected
Assay: tryptophan fluorescence quenching, double-log plot
Assay type: binding
Conditions: 25 mM Tris-HCl pH 7.4, 298.15 K, BSA 10 μM, surfactant 0-700 μM
Excerpt: tryptophan fluorescence quenching, double-log plot on bovine serum albumin (BSA)

T1 sequence (P02769 25-607): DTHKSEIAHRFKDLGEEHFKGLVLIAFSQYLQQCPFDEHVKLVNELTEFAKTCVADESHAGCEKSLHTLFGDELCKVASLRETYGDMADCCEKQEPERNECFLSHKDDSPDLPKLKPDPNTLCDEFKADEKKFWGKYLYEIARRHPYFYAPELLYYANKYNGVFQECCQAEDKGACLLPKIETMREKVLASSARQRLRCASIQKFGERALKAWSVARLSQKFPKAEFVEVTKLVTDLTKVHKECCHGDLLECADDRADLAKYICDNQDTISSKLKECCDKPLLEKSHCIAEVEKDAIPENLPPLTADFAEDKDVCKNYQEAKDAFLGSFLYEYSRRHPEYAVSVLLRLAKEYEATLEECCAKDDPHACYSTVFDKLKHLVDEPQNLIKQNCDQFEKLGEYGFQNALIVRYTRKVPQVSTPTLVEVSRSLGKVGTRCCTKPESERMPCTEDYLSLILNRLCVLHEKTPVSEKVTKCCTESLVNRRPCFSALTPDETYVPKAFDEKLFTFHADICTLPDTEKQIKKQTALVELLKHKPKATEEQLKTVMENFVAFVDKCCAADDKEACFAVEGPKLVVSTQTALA

Compound | Kb
CCCCn1cc[n+](CCC[n+]2ccn(CCOCCn3cc(COCCOCCOCCOC)nn3)c2)c1 [15a, 1-(2-(2-(4-(2,5,8,11-tetraoxadodecyl)-1H-1,2,3-triazol-1-yl)ethoxy)ethyl)-3-(3-(1-butyl-1H-imidazol-3-ium-3-yl)propyl)-1H-imidazol-3-ium dibromide] | 790 M⁻¹
COCCOCCOCCOCc1cn(CCCn2cc[n+](CCC[n+]3ccn(CCCn4cc(COCCOCCOCCOC)nn4)c3)c2)nn1 [14d, 3,3′-(propane-1,3-diyl)bis(1-(3-(4-(2,5,8,11-tetraoxadodecyl)-1H-1,2,3-triazol-1-yl)propyl)-1H-imidazol-3-ium) dibromide] | 34800 M⁻¹
COCCOCCOCCOCc1cn(CCOCCn2cc[n+](CCC[n+]3ccn(CCOCCn4cc(COCCOCCOCCOC)nn4)c3)c2)nn1 [15d, 3,3′-(propane-1,3-diyl)bis(1-(2-(2-(4-(2,5,8,11-tetraoxadodecyl)-1H-1,2,3-triazol-1-yl)ethoxy)ethyl)-1H-imidazol-3-ium) dibromide] | 10000 M⁻¹
CCCCn1cc[n+](CCCn2cc[n+](CCCn3cc(COCCOCCOCCOC)nn3)c2)c1 [14a, 1-(3-(4-(2,5,8,11-tetraoxadodecyl)-1H-1,2,3-triazol-1-yl)propyl)-3-(3-(1-butyl-1H-imidazol-3-ium-3-yl)propyl)-1H-imidazol-3-ium dibromide] | 730 M⁻¹
CCCCCCCCCCCCCCn1cc[n+](CCC[n+]2ccn(CCCn3cc(COCCOCCOCCOC)nn3)c2)c1 [14c, 1-(3-(4-(2,5,8,11-tetraoxadodecyl)-1H-1,2,3-triazol-1-yl)propyl)-3-(3-(1-tetradecyl-1H-imidazol-3-ium-3-yl)propyl)-1H-imidazol-3-ium dibromide] | 44900 M⁻¹
CCCCCCCCCCCCCCn1cc[n+](CCC[n+]2ccn(CCOCCn3cc(COCCOCCOCCOC)nn3)c2)c1 [15c, 1-(2-(2-(4-(2,5,8,11-tetraoxadodecyl)-1H-1,2,3-triazol-1-yl)ethoxy)ethyl)-3-(3-(1-tetradecyl-1H-imidazol-3-ium-3-yl)propyl)-1H-imidazol-3-ium dibromide] | 10900 M⁻¹
CCCCCCCCn1cc[n+](CCCn2cc[n+](CCCn3cc(COCCOCCOCCOC)nn3)c2)c1 [14b, 1-(3-(4-(2,5,8,11-tetraoxadodecyl)-1H-1,2,3-triazol-1-yl)propyl)-3-(3-(1-octyl-1H-imidazol-3-ium-3-yl)propyl)-1H-imidazol-3-ium dibromide] | 20700 M⁻¹
CCCCCCCCn1cc[n+](CCC[n+]2ccn(CCOCCn3cc(COCCOCCOCCOC)nn3)c2)c1 [15b, 1-(2-(2-(4-(2,5,8,11-tetraoxadodecyl)-1H-1,2,3-triazol-1-yl)ethoxy)ethyl)-3-(3-(1-octyl-1H-imidazol-3-ium-3-yl)propyl)-1H-imidazol-3-ium dibromide] | 10400 M⁻¹
